Measured values taken from patent publication US4415565A, “Silver metachloridine in treatment of infections” (The United States of America as represented by the …, priority 1981, dated 1983).
In brackets after ≈: the same amount, converted by molar mass. Read-outs that look alike come from different tables or passages of the source.

Tests used:
[1] = test system: Trypanosoma rhodesiense; test: In vitro antitrypanosomal screening, semi-automated microtest system; format: cell-based
[2] = test system: malaria; settings: A Survey of Antimalarial Drugs, 1941-1945; cited from earlier work
[3] = test system: Plasmodium falciparum; test: In vitro antimalarial screening, semi-automated microdilution technique; format: cell-based; settings: column head in nanograms/ml, footnote in μg/ml, read-out: ED50 (out-of-range entries)
Source text: Desjardins, R. E.; Canfield, C. J.; Haynes, J. D.; and Chulay, J. D.: Quantitative Assessment of Antimalarial Activity In Vitro by A Semi-automated Microdilution Technique. Antimicrob. Ag. & Chemother., 16:710-718, 1979.

[4] = test system: RVFV; test: microbe, parasite or virus in culture; format: cell-based; settings: Rift Valley fever virus, SW13, read-out: Concentration required to give 80% plaque reduction
[5] = test system: YF; test: microbe, parasite or virus in culture; format: cell-based; settings: MK2, read-out: Concentration required to give 80% plaque reduction
[6] = test system: DEN-2; test: microbe, parasite or virus in culture; settings: SW13, read-out: Concentration required to give 80% plaque reduction
[7] = test system: VEE; test: microbe, parasite or virus in culture; format: cell-based; settings: Vero; read-out: Concentration required to give 80% plaque reduction
[8] = test system: PICH; test: microbe, parasite or virus in culture; settings: Vero, read-out: Concentration required to give 80% plaque reduction
[9] = 3H-Thymidine, read-out: ED50, 3H-Thymidine (out-of-range entries)

## Nc1ccc(S(=O)(=O)Nc2ncccn2)cc1 [aluminum sulfadiazine]
[1]; [9]
  IC50: > 12.5 µg/mL

## Nc1cccc(S(=O)(=O)Nc2ncc(Cl)cn2)c1 [metachloridine, 5-chloro-2-metanilamidopyrimidine]
[2]
  antimalarial activity in screening tests: sufficiently active in screening tests for antimalarial effects
[1]; [9]
  IC50: > 12.5 µg/mL
[1]; 14C-Leucine, read-out: ED50, 14C-Leucine (out-of-range entries)
  IC50: > 12.5 µg/mL
[3]
  IC50: > 12.5 µg/mL

## NC(=O)c1ncn([C@@H]2O[C@H](CO)[C@@H](O)[C@H]2O)n1 [Ribavirin]
[4]
  EC80: 25 µg/mL (≈ 102 µM)
[5]
  EC80: 50 µg/mL (≈ 205 µM)
[6]
  EC80: 100 µg/mL (≈ 409 µM)
[7]
  EC80: 100 µg/mL (≈ 409 µM)
[8]
  EC80: 100 µg/mL (≈ 409 µM)

## COc1cnc(NS(=O)(=O)c2ccc(N)cc2)nc1 [sulfameter]
[1]; [9]
  IC50: > 12.5 µg/mL

## Nc1ccc(S(=O)(=O)Nc2ncccn2)cc1 [sulfadiazine, 2-sulfanilaminidopyrimidine]
[3]
  IC50: > 12.5 µg/mL
